The data set is described as follows: stability of BTG 1640 hydrochloride salt to temperature. The data set is classed as physicochemical. The conditions noted are these: at temperatures above 30° C.

SMILES strings stand for the structures.

In the case of `CN1OC2CCCC(=O)C2C1Cc1ccccc1.Cl` (stereo not shown) [hydrochloride salt of BTG 1640], the stability to temperature entry is reported as “unstable”.

These data come from patent US20110039902A1, “PROCESS FOR PREPARING A CRYSTALLINE FORM COMPOUND OF 3-BENZYL-2-METHYL-2,3,3a,4,5,6,7,7a-OCTAHYDROBENZO[d]ISOXAZOL-4-ONE” (ABIOGEN PHARMA S.P.A., priority 2008, published 2011).
